Data reported in PubChem BioAssay AID179 (DTP/NCI, 2004).
pEC50, pIC50: −log10 of the molar value. Where “and” joins values, the source holds several entries; their conditions need not be identical. Equal entries are not always repeated. Calls of active or inactive are those of the source.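 How the source made its calls: active means compounds giving half or more protection of infected cells from virus-caused growth loss, again on retest; inactive means the rest.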

System: CEM cells HIV-1 protection, formazan growth assay
Assay: NCI AIDS Antiviral Assay
Details: for pIC50: measured here: growth of uninfected CEM cells
How it was run: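 Five concentrations of each compound were applied to infected and uninfected human CEM cells. Protection from HIV-1 was judged from growth measured with a soluble formazan assay.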

Structure (SMILES)	pEC50	pIC50	outcome
COc1ccc2c(O)c(Oc3ccccc3)c(=O)oc2c1	< 3.70	3.84	
CC1(C)OC(=O)[C@@](C)([C@H](O)c2ccccc2)O1			inactive
O=c1[nH]c(=O)n(C2C=CC(CO)O2)cc1F (stereo not given)	< 3.70	< 3.70	
C=C1CC[N+]2(C)CCCC12 (stereo not given)	< 2.94	< 2.94	
Nc1ccc(/C=C\c2ccc([N+](=O)[O-])cc2S(=O)(=O)O)c(S(=O)(=O)O)c1	< 3.70	< 3.70	
COc1ccc(NC(=O)CC(=O)N2N=C(C)C(N=Nc3ccc(C(=O)O)cc3)C2=O)cc1 (stereo not given)	< 3.70	4.02	
Nc1nc(Cl)c(Cl)nc1C(=O)O	< 3.70	3.93	
CCOC(=O)/N=C(\N)SCc1ccccc1			inactive
CCCCCCCC1c2cc3[nH]c(cc4nc(cc5[nH]c(cc(n2)[C@@]1(C)CC(=O)N(C)C)c(C)c5CCC(=O)O)C(CCC(=O)O)=C4C)cc3C (stereo not given in full)	< 3.70	5.12	
Cc1cc(Cl)ccc1N1C(=O)C(=O)C(c2nc3ccccc3s2)/C(=N\NC(=O)c2ccccc2O)C1=O (stereo not given)	< 4.59	< 4.59	
CC1=C[C@@]2(C=C(C(=O)O)[C@@]34CCCC(C)(C)C3C[C@@H]2OC4)OC1=O (stereo not given in full)	< 3.42	< 3.42	
Cn1cc(NC(=O)Nc2cc(C(=O)Nc3ccc4cc(S(=O)(=O)O)cc(S(=O)(=O)O)c4c3)n(C)c2)cc1C(=O)Nc1ccc2cc(S(=O)(=O)O)cc(S(=O)(=O)O)c2c1	4.10	< 3.70	
COc1cc(OC)nc(-n2c(N)c(C(=O)O)c3ccc([N+](=O)[O-])cc3c2=O)n1	< 3.70	4.37	
COc1ccc(OC)c2c3c(ccc12)C1(CCc2c(C)cccc21)OC3=O (stereo not given)	< 4.26	5.09	
CC(C)(C)C1=Cc2cc3cc(C(C)(C)C)[nH]c(=O)c3cc2S(=O)(=O)N1	< 5.12	< 5.12	
O=S(=O)(CC#CCO)c1c2ccccc2cc2ccccc12			inactive
Cc1cc2ccccc2n1S(=O)(=O)c1ccccc1	< 4.02	< 4.02	
Cc1ccc(O)c(N=O)c1.[Cu+2]	< 3.70	5.58	
Cc1ccc(C)n1C1CCOC1=O (stereo not given)			inactive
CN(C)N1C(=C(C#N)C#N)C(c2ccccc2)CC1C#N (stereo not given)	< 3.70	< 3.70	
COC1=C2CC(C)CC(OC)C(O)C(C)/C=C(\C)C(OC(N)=O)C(OC)/C=C\C=C(/C)C(=O)NC(=C(/C=N/N3CCCCC3)C1=O)C2=O (stereo not given)	< 3.70	5.41	

Structure (SMILES)	pEC50	pIC50	outcome
COc1ccc(NC(=O)/C(=C/c2ccccc2)C(C)=O)cc1	< 3.91	4.73	
CCCCCCCCCCNc1nc(F)nc(Nc2cc3ccc(OC)cc3oc2=O)n1	< 4.40	5.15	
CC1(c2cccc3ccccc23)OC(=O)c2cccc(F)c21 (stereo not given)	< 4.44	5.23	
COC(=O)C1=C(C)N[C@@]2(C)[C@H](C(=O)OC)C[C@H]1C2(C(C)=O)C(C)=O	< 3.70	< 3.70	
[N-]=[NH+]CC(=O)OC(COCc1ccccc1)COCc1ccccc1	< 3.70	3.93	
N/C(=N\N=C\c1ccccn1)NO	< 3.70	4.48	
Cc1cn(C2CC(N(C)O)C(CO)O2)c(=O)[nH]c1=O (stereo not given)	4.50 and < 3.70	< 3.70 and 4.48	
CCOC(=O)C(C)(C)Oc1ccc2c(C)c(-c3ccc(Cl)cc3)c(=O)oc2c1	< 4.89	< 4.89	
CCN(CC)c1cc2oc(=O)cc(C)c2cc1NC(=O)c1cc([N+](=O)[O-])cc([N+](=O)[O-])c1	< 4.31	< 4.31	
O=C(CN1CCOCC1)NC1=Nc2ncccc2C(=O)NN1	< 3.70	3.94	
O=C1CC(O)c2c(Cl)sc(Cl)c21 (stereo not given)	< 3.70	5.28	
CN1CCc2ccccc2C(C(=O)c2ccc(Cl)cc2)C1=O (stereo not given)	< 4.08	< 4.08	
CCNC(=S)NNC(=O)c1nsc2ccccc12	< 3.47	3.73	
O=C(O)C[n+]1ccccc1	3.83	< 3.70	
[N-]=[N+]=NC1CC(n2cc(Cc3cccc(OCc4ccccc4)c3)c(=O)[nH]c2=O)OC1CO (stereo not given)			inactive
Cc1nc(N)c(N2CCN([N+](=O)[O-])CC2)c(=O)[nH]1			inactive
CC(C1=CC(=O)c2c(O)ccc(O)c2C1=O)C1=CC(=O)c2c(O)ccc(O)c2C1=O			inactive
Nc1ccc2c(c1)CC1c3ccccc3C(C2)c2ccccc21			inactive
CCCc1ccc(OC2OC(COC(C)=O)C(OC(C)=O)C(OC(C)=O)C2OC(C)=O)cc1 (stereo not given)	< 4.02	< 4.02	
CCN(CC)CCOc1ccc(C(=C2CCCCC2)c2ccc(OCCN(CC)CC)cc2)cc1	< 4.41	5.66	
COC(=O)C1=C(C)NC(CF)=C(C(=O)OC)C1c1cccc2c(=O)c3ccccc3oc12 (stereo not given)	< 3.70	5.46	

Structure (SMILES)	pEC50	pIC50	outcome
CC1OC1C(=O)P(=O)(O)O (stereo not given)	< 3.70	< 3.70	
Nc1nc2cc[nH]c2c(=O)[nH]1	< 3.18	< 3.18	
CCOC(=O)[C@@H]1ON2O[C@H](OC3CCCC3(c3ccccc3)c3ccccc3)C[C@H]3OC(=O)[C@@H]1C32 (stereo not given in full)	< 3.70	4.49	
CC(C)CC(C#CCCOC(=O)c1ccccc1)OC(=O)c1ccccc1 (stereo not given)	< 3.70	4.02	
c1ccc(C2SCc3nc4cc5ccccc5cc4n32)cc1 (stereo not given)	< 3.70	< 3.70	
COc1ccccc1C1C(C#N)C(=O)NC(=O)C1C#N (stereo not given)	< 3.70	< 3.70	
Cc1ccc(C(=O)NC2C(=O)NC(C(C)C)C(=O)N3CCCC3C(=O)N(C)CC(=O)N(C)C(C(C)C)C(=O)OC2C)c2c1Oc1c(c(C(=O)NC3C(=O)NC(C(C)C)C(=O)N4CCCC4C(=O)N(C)CC(=O)N(C)C(C(C)C)C(=O)OC3C)c3nc(-c4ccccc4)c(=O)oc3c1C)N2 (stereo not given)	< 4.72	8.10	
CC12c3c4cccc3Oc3cc(N)cc(c31)Oc1cc(N)cc(c12)O4	< 3.70	5.54	
O=[N+]([O-])c1ccc2c(c1)Sc1ccccc1N2CCCCCl	< 3.70	4.72	
c1ccc(-c2nnc(-c3ccccn3)c3c2C[C@@H]2C[C@@H]4Cc5c(-c6ccccn6)nnc(-c6ccccn6)c5[C@@H]4[C@H]32)nc1	< 3.70	< 3.70	
CCOC(=O)/C=C(/OCC)[C@@H]1C(C(=O)c2ccc(Cl)cc2)[C@@H]1/C(=C\C(=O)OCC)OCC (stereo not given in full)	< 3.70	5.23	
COc1ccc(-n2[nH]c(=O)n(C)c2=O)cc1	< 3.70	< 3.70	
O=C1Nc2nccnc2C(=O)N2CCC[C@@H]12	< 3.70	< 3.70	
CCN(CC)C(=S)SS(=O)(=O)c1ccc(Cl)cc1	< 3.70	4.92	
COc1ccc(/C(=C/n2ccnc2)C(=O)c2ccc(OC)c(OC)c2)cc1	< 3.70	< 3.70	
c1ccc2c(c1)[nH]c1c2nc2sccn21	< 3.63	< 3.84 and 3.67	
CNC(=S)NNC(=O)c1c(C)nc2sccn12	< 3.03	3.24	
CC1=NN(C(=O)CC(=O)Nc2ccc(C)cc2)C(=O)C1N=Nc1ccc(S(=O)(=O)c2ccc(N=NC3C(=O)N(C(=O)CC(=O)Nc4ccc(C)cc4)N=C3C)cc2)cc1 (stereo not given)	< 4.30	< 4.30	
CCCNC(=O)N(C(C)C)S(=O)(=O)c1ccc(Cl)cc1			inactive
c1ccc(CCn2cncn2)cc1	< 2.92	< 2.92	
